Source: patent US20250275948A1, “(N-[4-(2,3-DIHYDRO-1H-INDEN-5-YL)-1,3-THIAZOL-2-YL]-2-[4-METHYL-4-(NAPHTHALEN-2-YL)-2,5-DIOXOIMIDAZOLIDIN-1-YL]ACETAMIDE AS STABILIZER OF CLOCK:BMAL1 INTERACTION FOR THE TREATMENT OF CIRCADIAN RHYTHM DISEASES AND DISORDERS” (KOC UNIVERSITESI, priority 2022, published 2025)

Tests used:
[1] = system: WT, Clock knockout and Bmal1 knockout MEF cells; assay: Circadian rhythm monitoring in WT, Clock KO and Bmal1 KO MEF cells transduced with Bmal1-dLuc; format: cell-based, mouse; settings: WT vs Clock KO vs Bmal1 KO MEF cells
Procedure: Wild type (WT), Clock knockout (KO), and Bmal1 KO mouse embryonic fibroblast (MEF) cells were transduced with Bmal1-dLuc lentiviral particles to enable us to monitor the effect of CLK95 on circadian oscillation. To this end, virus particles were produced as follow: HEK 293T cells were transfected with 10 μg pLV6-Bmal1-dluc, 9 μg pCMV-ΔR8.2dvpr packaging and lug pCMV-VSVG envelope vectors at ˜70-80% confluency. The plasmid cocktail was mixed with 20 μL PEI in 400 μL DMEM and incubated at room temperature for 10 minutes and cells were transfected. After 16 hours of incubation at 37° C. under 5% CO2, 3 mL fresh D10 medium were added to plates. 48 hours after transfection, cell medium was replaced with 8 mL fresh D10 medium. Lentiviral particles were harvested at 72 and 96 hours post transfection. Collected particles were filtered through 0.45 μM syringe filter and aliquoted (750 μL) for storage at −80° C. for further use.
WT, Clock KO, and Bmal1 KO MEF cells were transduced with Bmal1-dluc lentiviral particles as follow: Cells were seeded in 35 mm cell culture plates at the density of 1×10^5 cell/plate. […] 72-hours post-transduction cells were synchronized with Dexamethasone (0.1 μM) and prepared for luminescence recording of the circadian oscillation as indicated at section 3.4

[2] = target: T1, CLOCK and BMAL1 (Mus musculus, UniProt O08785+Q9WTL8); assay: Subcellular fractionation from mice liver; set-up: species or system mice (C57BL/6J); settings: in vivo and in vitro
T1 construct: from tissue; host or cells: liver of C57BL/6J mice
Procedure: 8-12 weeks old male C57BL/6J mice were used for in vivo studies. Mice weighing 24-28 grams were subjected to a single dose of CLK95 (50 mg/kg) or vehicle (DMSO:Cremophor EL: 0.9% NaCl; 2.5:15:82.5, v/v/v) intraperitoneally. Animals which were obtained from Koç University Animal Research Facility were fed ad libitum. Four hours after treatment, animals were sacrificed, and the internal organs were harvested.
Subcellular fractionation from mice liver was performed by using 10 mg tissue sample. Buffers that were used in this process are same as in given in section 3.13. First, the tissue was washed in 500 μL ice-cold 1×PBS buffer and then resuspended in 300 μL cytosolic lysis buffer by pipetting and incubated on ice for 10 min. Samples were centrifuged at 660×g for 5 minutes (4° C.) to get rid of cell debris. While supernatants were collected and transferred to new microcentrifuge tubes for processing later to give cytosolic fractions, pellets containing intact nucleus were washed 3 times with 300 μL cytosolic lysis buffer. At the end of each wash, suspensions were centrifugated for 5 minutes at 660×g (4° C.). […] Samples were analysed with Western blot as described earlier using anti-CLOCK (Bethyl, A302-618A), anti-BMAL1 (Santa Cruz Biotech., SC-365645), anti-CRY1 (Bethyl, A302-614A), anti-Histone H3 (Abcam, ab1791), and anti-αTUBULIN (Sigma-Aldrich, T9026) antibodies were used.

[3] = target: T2, CLOCK:BMAL1 complex (Homo sapiens, UniProt O00327+O15516); assay: Pull-down assay with biotinylated-CLK95; format: binding; settings: 20 μM bCLK95 bait, 200 μM CLK95 competitor; HEK 293T and U2OS lysates
T2 construct: expressed in transfected cells; host or cells: HEK 293T
Procedure: To perform pull-down assay HEK 293T cells were transiently transfected with either 10 μg pCMV-Sport6-CLOCK or 10 μg pCMV-Sport6-Bmal1 plasmids. First, cells were seeded in a 10 cm cell culture dish at a density which will give ˜70-80% confluency next day. Then cells were transfected with 10 μg of the appropriate plasmid using 30 μL PEI in 1 mL DMEM. Cells were harvested 24 hours post-transfection and divided into four 1.5 mL centrifuge tubes. The conditions that were employed to probe the binding of the molecule to proteins contained a) only CLOCK overexpressed, b) only BMAL1 overexpressed and c) CLOCK-BMAL1 overexpressed mixtures. Pellet for each condition was lysed with 500 μL Lysis Buffer (50 mM Tris-HCl PH 7.4, 2 mM EDTA, 1 mM MgCl2, 0.2% NP-40, 1 mM Na3VO4, 1 mM NaF, 1×PIC) and incubated on ice for 20 minutes. Then samples were centrifuged at 7000×g for 10 minutes at 4° C. The supernatants of the CLOCK and BMAL1 lysates were mixed at 1:1 ratio. Following this step, collected lysate mixture was mixed with 2× binding buffer (100 mM Tris-HCl pH 7.4, 300 mM NaCl, 0.2% NP-40, 2 mM Na3VO4, 2 mM NaF, 2×PIC) at 1:1 ratio. […]

T2 sequence (O15516 whole entry): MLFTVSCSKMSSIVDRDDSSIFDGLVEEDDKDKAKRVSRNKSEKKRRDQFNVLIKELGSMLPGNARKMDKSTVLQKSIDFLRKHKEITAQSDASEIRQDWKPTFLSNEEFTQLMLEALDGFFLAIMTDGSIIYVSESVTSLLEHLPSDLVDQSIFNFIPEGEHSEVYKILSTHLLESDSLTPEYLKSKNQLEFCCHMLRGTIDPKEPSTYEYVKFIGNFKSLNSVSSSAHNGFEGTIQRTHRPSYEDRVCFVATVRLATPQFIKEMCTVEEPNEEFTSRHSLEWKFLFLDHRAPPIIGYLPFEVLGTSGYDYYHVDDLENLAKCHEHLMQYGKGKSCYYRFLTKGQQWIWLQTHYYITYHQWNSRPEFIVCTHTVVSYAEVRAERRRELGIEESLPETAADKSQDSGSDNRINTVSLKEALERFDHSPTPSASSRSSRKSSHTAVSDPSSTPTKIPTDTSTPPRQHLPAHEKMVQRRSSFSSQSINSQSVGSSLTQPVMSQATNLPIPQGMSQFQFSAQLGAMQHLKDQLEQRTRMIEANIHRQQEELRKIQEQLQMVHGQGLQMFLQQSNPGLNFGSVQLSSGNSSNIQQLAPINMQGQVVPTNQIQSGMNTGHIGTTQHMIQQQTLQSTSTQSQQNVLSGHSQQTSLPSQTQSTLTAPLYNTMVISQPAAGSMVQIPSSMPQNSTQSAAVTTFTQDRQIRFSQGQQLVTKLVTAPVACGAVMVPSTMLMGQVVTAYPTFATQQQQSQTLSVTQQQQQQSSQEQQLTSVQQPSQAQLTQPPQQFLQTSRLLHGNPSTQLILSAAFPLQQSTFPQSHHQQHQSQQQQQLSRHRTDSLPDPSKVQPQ
T2 sequence (O00327 whole entry): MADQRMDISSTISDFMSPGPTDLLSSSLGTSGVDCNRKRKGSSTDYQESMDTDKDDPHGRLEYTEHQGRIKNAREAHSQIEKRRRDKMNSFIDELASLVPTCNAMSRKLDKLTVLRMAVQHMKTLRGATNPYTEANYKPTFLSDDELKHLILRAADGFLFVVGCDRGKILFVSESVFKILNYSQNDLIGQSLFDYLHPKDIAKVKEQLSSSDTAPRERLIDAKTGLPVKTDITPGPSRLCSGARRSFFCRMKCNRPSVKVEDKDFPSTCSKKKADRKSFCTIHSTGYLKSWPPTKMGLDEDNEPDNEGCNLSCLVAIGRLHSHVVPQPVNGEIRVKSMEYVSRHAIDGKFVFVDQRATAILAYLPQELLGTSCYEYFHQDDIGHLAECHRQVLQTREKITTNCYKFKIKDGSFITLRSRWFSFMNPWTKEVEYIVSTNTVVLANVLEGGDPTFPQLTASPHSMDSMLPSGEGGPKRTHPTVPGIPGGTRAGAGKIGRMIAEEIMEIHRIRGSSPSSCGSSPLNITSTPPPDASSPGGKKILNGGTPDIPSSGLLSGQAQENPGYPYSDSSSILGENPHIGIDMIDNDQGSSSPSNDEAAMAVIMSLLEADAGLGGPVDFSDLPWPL

For `CC1(c2ccc3ccccc3c2)NC(=O)N(CC(=O)Nc2nc(-c3ccc4c(c3)CCC4)cs2)C1=O` (stereo not drawn) [CLK95], the “dependence of circadian phenotype on CLOCK and BMAL1” value [1] was “effecting the circadian phenotype through CLOCK and BMAL1”, the “translocation of CLOCK and BMAL1 into the nucleus” value [2] was “interfering with the translocation of CLOCK and BMAL1 into the nucleus both in vivo and in vitro” and the binding in pull-down [3] was “specifically binding to CLOCK:BMAL1 complex”.
